# Data taken from US20060058383A1 (priority 2004, published 2006).
# Tests used:
# HL-60/AR cells [1] = experiment: MTT cytotoxicity, drug-resistant clone versus parental cells; format: cell-based, human; details: MTT assay
# Experimental: HL-60 cell line and its drug-resistant clone HL-60/AR were incubated with the indicated concentrations of doxorubicin, vincristine, and 3-BrPA for 72 h. Cytotoxicity was measured by MTT assay. […] Based on the teachings provided herein, studies may be performed to determine the sensitivity of HL-60/AR cells to Glycolycin.
# Ara-C, a drug commonly used in the frontline treatment of leukemia, was used in parallel experiments. Cytotoxicity was measured by MTT assay.
# [2] = system: HL-60 cells with high Bcl-2 expression; experiment: MTT growth inhibition of Bcl-2 transfected cells; format: cell-based, human; details: MTT assay
# Experimental: Cell growth inhibition was measured by MTT assay.
# Increased expression of the anti-apoptotic molecule Bcl-2 has been associated with drug resistance in cancer cells. The over-expression of Bcl-2 in HL-60 cells was […] against the cytotoxic effect of S-Glycolycin. […] Thus, Glycolycin may be used to overcome drug resistance due to Bcl-2 over expression.
# [3] = system: human lymphoma cells (Raji); experiment: Apoptosis, annexin-V/PI flow cytometry; format: cell-based
# Source text: Because the mTOR pathway plays an important role in promoting cellular nutrient metabolism and cell growth, and function to enhance cell survival downstream of the P13K/Akt pathway, the present inventors postulated that a simultaneous inhibition of mTOR and glycolysis, which serve as a major metabolic pathway for ATP generation in cancer cells, would severely impact cellular energy metabolism and have a potent cytotoxic effect against malignant cells. To test this possibility, rapamycin was used as an agent to inhibit mTOR, and glycolycin (3-bromo-2-oxopropionate, abbreviated herein as 3-BrOP) to inhibit glycolysis.
# (§1) Cell growth inhibition was determined by direct counting of the cells after they were treated with rapamycin, 3-BrOP, or their combination. A Coulter Z2 Particle Count & Size Analyzer was used to determine cell counts at 24 h, 48 h, and 72 h after drug incubation. Apoptosis was measured by flow cytometric analysis of cells stained with annexin V-FITC and propidium iodide (PI). Cells were treated with the indicated compounds under various incubation conditions as described in the figure legends. The samples were collected, washed with cold PBS, and then suspended in annexin-V binding buffer. The cells were stained with annexin V-FITC for 15 min at room temperature, washed, and then stained with PI. The samples were analyzed using a FACSCalibur flow cytometer equipped with CELLQuestPro software (Becton-Dickinson, San Jose, Calif.).
# [4] = system: human lymphoma cells (Raji); experiment: Sensitivity under hypoxic versus normoxic conditions, annexin-V/PI assay 24 h; format: cell-based; details: 0.3 μM
# Experimental: (Annexin-V/PI assay, 24 h)
# (§2) Cancer cells in solid tumors have to adapt to the hypoxia environment due to insufficient blood supply. Under hypoxia conditions, cancer cells use the glycolytic pathway to generate ATP without consuming oxygen. This metabolic adaptation also renders cancer cells relatively resistant to anticancer agents and radiation therapy, partially due to up-regulation of expression of cell survival factors such as HIF-1α. […] However, because under hypoxia condition cancer cells dependent on glycolysis for generation of ATP, it is contemplated that such cancer cells are vulnerable to glycolytic inhibition by Glycolycin. […] Thus, it is envisioned that Glycolycin can be use for effective treatment of many solid tumors, either as a single agent or in combination with other anticancer agents.
# [5] = system: human colon cancer (HCT116) cells; experiment: Sensitivity under hypoxic versus normoxic conditions, annexin-V/PI assay; format: cell-based
# Source text: as §2
# [6] = system: human leukemia HL-60 cell line; experiment: Depletion of cellular ATP pool (PCA extraction, HPLC); format: cell-based; details: 12 h incubation; HL-60
# Experimental: (§3) Cells were incubated with the indicated concentrations of S-Glycolycin or 3-BrPA for 12 h. Cellular ATP was extracted by 0.4 N PCA, neutralized with KOH, and quantified by HPLC analysis. […] Incubation of cells with 0.03 mM S-Glycolycin completely depleted cellular ATP in both cell lines, while it required a 10-fold greater concentration (0.3 mM) of 3-BrPA to achieve the same degree of ATP depletion.
# [7] = Stability of neutral drug solution on storage
# HL-60 cells [8] = experiment: Induction of apoptosis, annexin-V/PI flow cytometry; format: cell-based, human; details: 30 μM; 24 h
# Experimental: HL-60 cells were incubated with the indicated concentrations of S-Glycolycin or 3-BrPA for 24 h. Apoptosis was measured by double staining with annexin-V and PI, followed by flow cytometry analysis. […] Incubation of HL-60 cells with 30 μM of S-Glycolycin caused more 90% cells to undergo apoptosis in 24 h, whereas the same concentration of 3-BrPA killed less than 20% of the cells within the same time period.
# HL-60/AR cells [9] = experiment: Combination cytotoxicity in multi drug resistant cells, annexin-V/PI assay 24 h; format: cell-based, human; details: multi drug resistant HL-60/AR cells
# [10] = system: respiration-deficient clones HL-c6/ρ^0-C6F and Raji-C6; experiment: Cytotoxicity in respiration-deficient clones, annexin-V/PI and colony formation; format: cell-based, human
# Experimental: Initial studies have been performed to test the sensitivity of respiration-competent leukemia cells (parental HL-60) and lymphoma cells (parental Raji) in comparison with their respiration-deficient clones HL-c6/ρ^0-C6F and Raji-C6. The mitochondria-defect cell lines were established by the present inventors and others (Pelicano et al., 2003). Cells were incubated with the indicated concentrations of 3-BrPA, and cytotoxicity was measured by two different assays: annexin-V/PI staining and colony formation assay.
# [11] = system: respiration-deficient subclone HL-60/C6F cells; experiment: Depletion of cellular ATP pool (PCA extraction, HPLC); format: cell-based, human; details: 12 h incubation
# Experimental: as §3
# HL-60 cells [12] = experiment: MTT assay, in vitro cytotoxic activity before and after storage of drug solutions; format: cell-based, human; details: pH 7.0, 72 h drug incubation
# Raji cells [13] = experiment: Cell growth by direct cell counting (Coulter Z2); format: cell-based, human; details: 100 ng/ml alone; up to 72 h
# Experimental: A different assay was then used to further confirm the synergy between rapamycin and 3-BrOP. Raji cells were treated with 30 μM 3-BrOP, 100 ng/ml rapamycin, or their combination, and the numbers of cells were directly counted for consecutive 3 days, using a Coulter Z2 Particle Count & Size Analyzer.
# as §1
# Raji cells [14] = experiment: Cellular glucose uptake, [3H]-2-deoxyglucose; format: cell-based, human; details: 100 ng/ml for 20 h
# Experimental: After the samples were washed three times with cold PBS, the radioactivity in the cell pellets was quantified by liquid scintillation counting. […] Intracellular nucleotides were extracted from the cells with 0.4 N of perchloric acid (PCA) for 10 min in ice-bath, neutralization with concentrated KOH to pH 7.0, and analyzed by HPLC analysis as described previously (Xu et al., 2005; Seymour et al., 1996). The intracellular ATP contents were calculated using the ATP standard curve generated under identical HPLC conditions, and normalized by equal cell number. The relative cellular ATP levels were expressed as percent of the control cells.
smiles,measurement,setting,value
Nc1ccn([C@@H]2O[C@H](CO)[C@@H](O)[C@@H]2O)c(=O)n1 [ara-C],sensitivity of HL-60/AR compared to parental HL-60 cells,HL-60/AR cells [1],moderately resistant
same,sensitivity of Bcl-2 transfected cells compared to transfected control (Neo),[2],reduced sensitivity
same,"apoptosis, % of the cells","[3]; concentration range of 0.5-1 μM, 30 h",20-35%
CC[C@]1(O)C[C@H]2CN(CCc3c([nH]c4ccccc34)[C@@](C(=O)OC)(c3cc4c(cc3OC)N(C=O)[C@H]3[C@@](O)(C(=O)OC)[C@H](OC(C)=O)[C@]5(CC)C=CCN6CC[C@]43[C@@H]65)C2)C1 [vincristine],sensitivity of HL-60/AR compared to parental HL-60 cells,HL-60/AR cells [1],highly resistant
COc1cccc2c1C(=O)c1c(O)c3c(c(O)c1C2=O)C[C@@](O)(C(=O)CO)C[C@@H]3O[C@H]1C[C@H](N)[C@H](O)[C@H](C)O1 [doxorubicin],sensitivity under hypoxic versus normoxic conditions,[4],slightly reduced
same,sensitivity of HL-60/AR compared to parental HL-60 cells,HL-60/AR cells [1],highly resistant
same,sensitivity of Bcl-2 transfected cells compared to transfected control (Neo),[2],reduced sensitivity
same,sensitivity under hypoxic versus normoxic conditions,[5],reduced
"O=C(O)C(=O)CBr [3-BrPA, 3-bromo-2-oxopropionic acid, reference compound]",concentration that completely depleted cellular ATP,[6],0.3 mM
same,sensitivity of HL-60/AR compared to parental HL-60 cells,HL-60/AR cells [1],equally sensitive
same,activity of solution after storage,[7]; kept at 4° C. for 3 weeks,substantial loss of activity
same,stability of solution at neutral pH,"[7]; pH 7.0, kept at 4° C.",discoloration
same,cells undergoing apoptosis,HL-60 cells [8],less than 20%
same,effect of combination with ara-C or doxorubicin on cytotoxic activity,HL-60/AR cells [9],significantly enhance the cytotoxic activity
same,sensitivity of mitochondria-defect cells compared to parental cells,[10],more sensitive
same,concentration that completely depleted cellular ATP,[11],0.3 mM
same,sensitivity under hypoxic versus normoxic conditions,[5],significantly more sensitive
same,% Cell Survival,"HL-60 cells [12]; 5 μM, fresh drug solution",99.8 ± 1.9%
same,% Cell Survival,"HL-60 cells [12]; 10 μM, drug stored for 3 weeks at 4° C.",70.0 ± 9.8%
same,% Cell Survival,"HL-60 cells [12]; 10 μM, fresh drug solution",59.2 ± 4.1%
same,% Cell Survival,"HL-60 cells [12]; 30 μM, drug stored for 3 weeks at 4° C.",87.0 ± 23%
same,% Cell Survival,"HL-60 cells [12]; 30 μM, fresh drug solution",3.0 ± 1.4%
same,% Cell Survival,"HL-60 cells [12]; 100 μM, drug stored for 3 weeks at 4° C.",2.3 ± 0.3%
same,% Cell Survival,"HL-60 cells [12]; 100 μM, fresh drug solution",2.5 ± 0.8%
"CO[C@H]1C[C@@H]2CC[C@@H](C)[C@@](O)(O2)C(=O)C(=O)N2CCCC[C@H]2C(=O)O[C@H]([C@H](C)C[C@@H]2CC[C@@H](O)[C@H](OC)C2)CC(=O)[C@H](C)/C=C(\C)[C@@H](O)[C@@H](OC)C(=O)[C@H](C)C[C@H](C)/C=C/C=C/C=C/1C [rapamycin, reference compound]",decrease in cell numbers,Raji cells [13],~35%
same,decrease in glucose uptake,Raji cells [14],6%
same,apoptosis,[3]; 100 ng/ml alone,4.8%
